Measurements: publication PMC4965013, “Open Source Drug Discovery with the Malaria Box Compound Collection for Neglected Diseases and Beyond” (PLoS Pathogens, 2016)

What was measured:
[1] = test system: P. falciparum 3D7 trophozoites; experiment: Metabolomic fingerprint profiling LC-MS; assay type: cell-based, Plasmodium falciparum; design: UDP-D-glucose / ADP-D-glucose: unit not given here; conditions: for Acetyllysine / N-acetyl-L-ornithine / N-carbamoyl-L-aspartate / NADPH / dAMP / dCMP / dTDP / dTMP / dTTP / dihydroorotate / orotate / DLH / DLS/SDL/SID / PD / PEE / PVNF / 3-phosphoglycerate / ADP-D-glucose / ATP / CDP / D-sedoheptulose-1/7-phosphate / FAD / GMP / NAD+ / NADP+ / Octoluse Bisphosphate / Pyroglutamic acid / UDP-D-glucose / UDP-D-glucuronate / UDP-N-acetyl-glucosamine / UDP / UMP / UTP / a-ketoglutarate / citrate/isocitrate / cytidine / dATP / dGMP/AMP / fumarate / glucose-1/6-phosphate / glycerate / guanine / guanosine / hypoxanthine / indole / inosine / nicotinate / ornithine / phosphoenolpyruvate / pyruvate / ribose-phosphate / sarcosine/alanine / sn-glycerol-3-phosphate / succinate/methylmalonic acid / uridine / xanthosine: S2 Table Metabolomics; for Acetyllysine: metabolite Acetyllysine; for N-acetyl-L-ornithine: metabolite N-acetyl-L-ornithine; for N-carbamoyl-L-aspartate: metabolite N-carbamoyl-L-aspartate; for NADPH: metabolite NADPH; for dAMP: metabolite dAMP; for dCMP: metabolite dCMP; for dTDP: metabolite dTDP; for dTMP: metabolite dTMP; for dTTP: metabolite dTTP; for dihydroorotate: metabolite dihydroorotate; for orotate: metabolite orotate; for DLH: peptide DLH; for DLS/SDL/SID: peptide DLS/SDL/SID; for PD: peptide PD; for PEE: peptide PEE; for PVNF: peptide PVNF; for 3-phosphoglycerate: metabolite 3-phosphoglycerate; for ADP-D-glucose: metabolite ADP-D-glucose; for ATP: metabolite ATP; for CDP: metabolite CDP; for CDP / D-sedoheptulose-1/7-phosphate / GMP / Octoluse Bisphosphate / UDP / UMP / UTP / citrate/isocitrate / dGMP/AMP / fumarate / glucose-1/6-phosphate / glycerate / guanine / guanosine / inosine / pyruvate / sarcosine/alanine / succinate/methylmalonic acid / uridine / xanthosine: change in metabolite level after compound treatment; for D-sedoheptulose-1/7-phosphate: metabolite D-sedoheptulose-1/7-phosphate; for FAD: metabolite FAD; for GMP: metabolite GMP; for NAD+: metabolite NAD+; for NADP+: metabolite NADP+; for Octoluse Bisphosphate: metabolite Octoluse Bisphosphate; for Pyroglutamic acid: metabolite Pyroglutamic acid; for UDP-D-glucose: metabolite UDP-D-glucose; for UDP-D-glucuronate: metabolite UDP-D-glucuronate; for UDP-N-acetyl-glucosamine: metabolite UDP-N-acetyl-glucosamine; for UDP: metabolite UDP; for UMP: metabolite UMP; for UTP: metabolite UTP; for a-ketoglutarate: metabolite a-ketoglutarate; for citrate/isocitrate: metabolite citrate/isocitrate; for cytidine: metabolite cytidine; for dATP: metabolite dATP; for dGMP/AMP: metabolite dGMP/AMP; for fumarate: metabolite fumarate; for glucose-1/6-phosphate: metabolite glucose-1/6-phosphate; for glycerate: metabolite glycerate; for guanine: metabolite guanine; for guanosine: metabolite guanosine; for hypoxanthine: metabolite hypoxanthine; for indole: metabolite indole; for inosine: metabolite inosine; for 2_3-Diphosphoglyceric acid / 4-phosphopantothenate / 6-phospho-D-gluconate / FMN / IMP / Pyrophosphate / Sedoheptoluse bisphosphate / cyclic-AMP / glutathione disulfide / lactate / myo-inositol: metabolite level change after treatment; for nicotinate: metabolite nicotinate; for ornithine: metabolite ornithine; for phosphoenolpyruvate: metabolite phosphoenolpyruvate; for pyruvate: metabolite pyruvate; for ribose-phosphate: metabolite ribose-phosphate; for sarcosine/alanine: metabolite sarcosine/alanine; for sn-glycerol-3-phosphate: metabolite sn-glycerol-3-phosphate; for succinate/methylmalonic acid: metabolite succinate/methylmalonic acid; for uridine: metabolite uridine; for xanthosine: metabolite xanthosine
P. falciparum = experiment: EC50 listed in S2 Table Metabolomics (used to set the concentration tested); assay type: cell-based; conditions: Plasmodium falciparum; EC50 used for Factor_XEC50 in metabolomics; read-out: EC50_nM

**Q.** For `COc1ccccc1CNC(=O)CCn1c(=O)[nH]c2ccsc2c1=O` [MMV019066], which Acetyllysine [1] is on record?
**A.** Its Acetyllysine is 0.07735.

**Q.** And the N-acetyl-L-ornithine [1]?
**A.** The N-acetyl-L-ornithine was -0.0529.

**Q.** And the N-carbamoyl-L-aspartate [1]?
**A.** The N-carbamoyl-L-aspartate was 0.05336.

**Q.** What about the NADPH [1] of the same compound?
**A.** Its NADPH is -0.3877.

**Q.** What about the dAMP [1] of the same compound?
**A.** Its dAMP is -0.3418.

**Q.** What about the dCMP [1] of the same compound?
**A.** The dCMP was -0.4851.

**Q.** And the dTDP [1]?
**A.** Its dTDP is 0.1634.

**Q.** What about the dTMP [1] of the same compound?
**A.** The dTMP was 0.1236.

**Q.** What about the dTTP [1] of the same compound?
**A.** Its dTTP is -0.2106.

**Q.** What about the dihydroorotate [1] of the same compound?
**A.** The dihydroorotate was 0.243.

**Q.** And the orotate [1]?
**A.** Its orotate is -0.2.

**Q.** And the DLH [1]?
**A.** Its DLH is -0.2144.

**Q.** What about the DLS/SDL/SID [1] of the same compound?
**A.** Its DLS/SDL/SID is -0.3411.

**Q.** And the PD [1]?
**A.** Its PD is 0.09576.

**Q.** What about the PEE [1] of the same compound?
**A.** The PEE was 0.0022.

**Q.** What about the PVNF [1] of the same compound?
**A.** Its PVNF is -0.1895.

**Q.** What about the 3-phosphoglycerate [1] of the same compound?
**A.** The 3-phosphoglycerate was -0.09413.

**Q.** And the ADP-D-glucose [1]?
**A.** Its ADP-D-glucose is -0.05903.

**Q.** What about the ATP [1] of the same compound?
**A.** The ATP was -0.2412.

**Q.** What about the CDP [1] of the same compound?
**A.** The CDP was 0.1136.

**Q.** What about the D-sedoheptulose-1/7-phosphate [1] of the same compound?
**A.** Its D-sedoheptulose-1/7-phosphate is 0.1088.

**Q.** What about the FAD [1] of the same compound?
**A.** Its FAD is 0.05372.

**Q.** What about the GMP [1] of the same compound?
**A.** Its GMP is 0.1058.

**Q.** And the “NAD+” value [1]?
**A.** Its value is 0.8616.

**Q.** And the “NADP+” value [1]?
**A.** The value was -0.0134.

**Q.** And the “Octoluse Bisphosphate” value [1]?
**A.** The value was -0.2214.

**Q.** And the Pyroglutamic acid [1]?
**A.** Its Pyroglutamic acid is -0.1934.

**Q.** What about the UDP-D-glucose [1] of the same compound?
**A.** The UDP-D-glucose was 0.05907.

**Q.** What about the UDP-D-glucuronate [1] of the same compound?
**A.** Its UDP-D-glucuronate is -0.137.

**Q.** And the UDP-N-acetyl-glucosamine [1]?
**A.** Its UDP-N-acetyl-glucosamine is 0.07368.

**Q.** What about the UDP [1] of the same compound?
**A.** Its UDP is 0.06631.

**Q.** And the UMP [1]?
**A.** Its UMP is 0.4511.

**Q.** What about the UTP [1] of the same compound?
**A.** Its UTP is -0.2134.

**Q.** And the a-ketoglutarate [1]?
**A.** The a-ketoglutarate was -0.0676.

**Q.** And the citrate/isocitrate [1]?
**A.** The citrate/isocitrate was -0.2257.

**Q.** What about the cytidine [1] of the same compound?
**A.** Its cytidine is 0.1038.

**Q.** What about the dATP [1] of the same compound?
**A.** The dATP was -0.07834.

**Q.** And the dGMP/AMP [1]?
**A.** Its dGMP/AMP is 0.0855.

**Q.** What about the fumarate [1] of the same compound?
**A.** Its fumarate is 1.364.

**Q.** And the glucose-1/6-phosphate [1]?
**A.** The glucose-1/6-phosphate was 0.5644.

**Q.** And the glycerate [1]?
**A.** The glycerate was -0.201.

**Q.** What about the guanine [1] of the same compound?
**A.** Its guanine is 0.002341.

**Q.** And the guanosine [1]?
**A.** Its guanosine is -0.12.

**Q.** And the hypoxanthine [1]?
**A.** The hypoxanthine was -0.07458.

**Q.** What about the indole [1] of the same compound?
**A.** The indole was -0.09687.

**Q.** What about the inosine [1] of the same compound?
**A.** The inosine was -0.05497.

**Q.** What about the 2_3-Diphosphoglyceric acid [1] of the same compound?
**A.** The 2_3-Diphosphoglyceric acid was -0.2512.

**Q.** And the 4-phosphopantothenate [1]?
**A.** Its 4-phosphopantothenate is -0.02128.

**Q.** And the 6-phospho-D-gluconate [1]?
**A.** Its 6-phospho-D-gluconate is -0.003238.

**Q.** What about the FMN [1] of the same compound?
**A.** Its FMN is -0.1662.

**Q.** What about the IMP [1] of the same compound?
**A.** The IMP was 0.2187.

**Q.** What about the Pyrophosphate [1] of the same compound?
**A.** Its Pyrophosphate is -0.2235.

**Q.** And the Sedoheptoluse bisphosphate [1]?
**A.** The Sedoheptoluse bisphosphate was -0.07937.

**Q.** And the cyclic-AMP [1]?
**A.** The cyclic-AMP was -0.08199.

**Q.** What about the glutathione disulfide [1] of the same compound?
**A.** Its glutathione disulfide is 0.08045.

**Q.** And the lactate [1]?
**A.** The lactate was -0.3675.

**Q.** And the myo-inositol [1]?
**A.** Its myo-inositol is -0.05445.

**Q.** And the nicotinate [1]?
**A.** The nicotinate was -0.03534.

**Q.** And the ornithine [1]?
**A.** The ornithine was 0.2934.

**Q.** And the phosphoenolpyruvate [1]?
**A.** The phosphoenolpyruvate was -0.1195.

**Q.** And the pyruvate [1]?
**A.** The pyruvate was -0.02123.

**Q.** What about the ribose-phosphate [1] of the same compound?
**A.** The ribose-phosphate was -0.1454.

**Q.** And the sarcosine/alanine [1]?
**A.** The sarcosine/alanine was 0.007595.

**Q.** And the sn-glycerol-3-phosphate [1]?
**A.** The sn-glycerol-3-phosphate was -0.1485.

**Q.** And the succinate/methylmalonic acid [1]?
**A.** The succinate/methylmalonic acid was 0.2071.

**Q.** And the uridine [1]?
**A.** Its uridine is 0.04529.

**Q.** What about the xanthosine [1] of the same compound?
**A.** Its xanthosine is -0.08771.

**Q.** What about the EC50 (P. falciparum) of the same compound?
**A.** The EC50 was 140 nM.

**Q.** What does the source list for `Cc1cccc(Nc2nc(N)c3ccccc3n2)c1` [MMV019110]?
**A.** Acetyllysine [1]: -0.7861; N-acetyl-L-ornithine [1]: -0.3066; N-carbamoyl-L-aspartate [1]: 0.8718; NADPH [1]: 1.0636; dAMP [1]: 0.1705; dCMP [1]: -1.068; dTDP [1]: -0.2853; dTMP [1]: -0.4806; dTTP [1]: -0.142; dihydroorotate [1]: 1.069; orotate [1]: -0.7263; DLH [1]: -1.2334; DLS/SDL/SID [1]: -0.8825; PD [1]: -0.6502; PEE [1]: -0.294; PVNF [1]: -0.8541; 3-phosphoglycerate [1]: 0.2769; ADP-D-glucose [1]: 0.08672; ATP [1]: 0.01278; CDP [1]: -0.4413; D-sedoheptulose-1/7-phosphate [1]: -0.5631; FAD [1]: -0.04154; GMP [1]: 0.0758; NAD+ [1]: -0.03841; NADP+ [1]: 0.1589; Octoluse Bisphosphate [1]: -0.09051; Pyroglutamic acid [1]: -0.4571; UDP-D-glucose [1]: -0.005349; UDP-D-glucuronate [1]: 0.1448; UDP-N-acetyl-glucosamine [1]: -0.09963; UDP [1]: -0.5337; UMP [1]: -0.1391; UTP [1]: -0.1864; a-ketoglutarate [1]: -0.9521; citrate/isocitrate [1]: -0.8432; cytidine [1]: 0.1554; dATP [1]: -0.04411; dGMP/AMP [1]: 0.02273; fumarate [1]: -0.3633; glucose-1/6-phosphate [1]: -0.2644; glycerate [1]: -1.224; guanine [1]: -1.026; guanosine [1]: -2.158; hypoxanthine [1]: -0.00849; indole [1]: -0.09763; inosine [1]: -0.6039; 2_3-Diphosphoglyceric acid [1]: -0.1372; 4-phosphopantothenate [1]: -0.5707; 6-phospho-D-gluconate [1]: -0.1735; FMN [1]: 0.07582; IMP [1]: -0.3382; Pyrophosphate [1]: -0.02007; Sedoheptoluse bisphosphate [1]: -0.1834; cyclic-AMP [1]: -0.2741; glutathione disulfide [1]: -0.5227; lactate [1]: -1.008; myo-inositol [1]: -1.363; nicotinate [1]: -1.278; ornithine [1]: 0.0513; phosphoenolpyruvate [1]: 0.03081; pyruvate [1]: -1.488; ribose-phosphate [1]: -0.08015; sarcosine/alanine [1]: -0.6413; sn-glycerol-3-phosphate [1]: -0.02952; succinate/methylmalonic acid [1]: -0.4318; uridine [1]: -1.131; xanthosine [1]: -0.9126; EC50 (P. falciparum): 400 nM
